Experimental data: patent publication EP1401829B1, “NOVEL HETEROCYCLIC ANTIBACTERIAL COMPOUNDS” (Microbiotix, Inc., priority 2001, dated 2002)
Marks after values point to notes of the source that are not given here.

Assays:
[1] = tested on: Enterococcus faecalis (ATCC 29212); assay: In vivo efficacy of Compound 70 in mouse models; details: mice, 3x10^7 CFU/mouse + 5% Mucin
Method: (§1) Swiss Webster mice, ca. 20 g each, were infected with Staphylococcus aureus (Smith strain) by the intraperitoneal route. Test compounds (2, 4, 5, 6, 7, 8, 10, 12) were dissolved in 10% dimethylsulfoxide in peanut oil to a concentration of 2 mg/ml. Vancomycin was used as positive control drug (i.e., protection from lethal infection). Fifteen minutes after infection, test compounds, vancomycin, or vehicle alone were given intraperitoneally to groups of five mice each. Animals were monitored for three days, and the number of mice surviving was tabulated for each treatment.
(§2) Using the same basic procedure as described above, the in vivo efficacy of Compound 70 was also evaluated at various doses in mice infected with S. aureaus (Smith), MRSA 1094, Enterococcus faecalis, or vancomycin-resistant Enterococcus faecalis strain VRE 700802. […] Negative controls were mice infected that received no treatment. Mucin was employed as an adjuvant to facilitate bacterial infection in mice, where indicated.

[2] = tested on: Staphylococcus aureus (Smith); assay: In vivo efficacy of Compound 70 in mouse models; details: mice, 10^8 CFU/mouse, regimen 1 (t=0)
Method: as §1, §2

[3] = tested on: enterococci or staphylococci strains, including MRSA and VRE strains; assay: In vivo efficacy of Compound 70 in mouse models, overall statement; details: mice; administration from distant parenteral sites (i.e., iv, sc, or im)
Method: as §2

CCc1cc(Nc2cc(=O)n(CCCCN3CCN(c4c(F)cc5c(=O)c(C(=O)O)cn(C6CC6)c5c4F)CC3C)c(=O)[nH]2)ccc1C (stereo not shown) [Compound 70, 3-{4-[1-(1-cyclopropyl-3-carboxy-4-oxo-6,8-difluoro-7-quinolyl)-3-methyl-4-piperazinyl]butyl}-6-(3-ethyl-4-methylanilino)uracil]
% Survival at 72 hours ([1]; dose 25 mg/kg, regimen 1 (t=0)): 40% (2/5) | % Survival at 72 hours ([1]; dose 25 mg/kg, regimen 2 (t=0,2)): 40% (2/5) | % Survival at 72 hours ([1]; dose 50 mg/kg, regimen 1 (t=0)): 60% (3/5) | % Survival at 72 hours ([1]; dose 50 mg/kg, regimen 2 (t=0,2)): 80% (8/10)** | % Survival at 72 hours ([1]; dose 75 mg/kg, regimen 1 (t=0)): 80% (4/5) | % Survival at 72 hours ([2]; dose 3.125 mg/kg): 0% (0/5) | % Survival at 72 hours ([2]; dose 12.5 mg/kg): 40% (6/15) | % Survival at 72 hours ([2]; dose 25 mg/kg): 100% (20/20)** | % Survival at 72 hours ([2]; dose 50 mg/kg): 100% (10/10)** | activity against intra-peritoneal challenge [3]: dose-related activity
